What was measured:
influenza virus [1] = conditions: in vivo; cited from earlier work
[2] = test system: A/Brisbane/10/2007 (H3N2); type: cell-based, influenza
influenza virus [3] = conditions: in vitro; cited from earlier work
[4] = test system: A/California/04/2009 (H1N1); type: cell-based, influenza
A/Anhui/01/2013 (H7N9) = type: cell-based, influenza; conditions: A549 cells, 10 μM for 1 hour before infection, 1 MOI H7N9, 24 hours post infection, titrated on MDCK cells

O=C(NCCN1CCC2(CC1)C(=O)NCN2c1cccc(F)c1)c1ccc2ccccc2c1 [compound 3]
survival (influenza virus [1]): increased survival | viral titer (influenza virus [1]): reduced viral titer | viral reproduction (TCID50) [2]: significantly lowered viral reproduction | viral entry (influenza virus [3]): delayed viral entry | viral titers (influenza virus [3]): reduced viral titers | cellular toxicity in microscopic image (A549 cells): significant cellular toxicity | viral reproduction (TCID50) [4]: significantly lowered viral reproduction | viral reproduction (TCID50) (A/Anhui/01/2013 (H7N9)): significantly lowered viral reproduction
